In brackets after ≈: the same amount, converted by molar mass. Entries after “also recorded” stand apart in the source; their conditions may differ. Like-named read-outs stand apart in the source and are kept apart here. Where only a bound is given, the exact number is not on record here.

The term EC50 denotes the concentration at which the effect is half-maximal. As usually defined, the Solubility is the concentration that dissolves in the medium under given conditions. A lower Solubility goes with little dissolved substance. The LogD is lipophilicity at a set pH, counting ionised and neutral species.

One series is described as follows: Plasma protein binding. In kind it is in vitro ADME.
The next series relates to RSV B Washington. In kind it is cell-based, Respiratory syncytial virus. The conditions noted are these: read-out: RSV B EC50, Hep2 cells, CPE assay.
The nature of another series: Aqueous solubility. In kind it is physicochemical.
The test system of series [1] is subgenomic RSV replicon. In kind it is cell-based, Respiratory syncytial virus. To be noted: for EC50: read-out: Replicon EC50, APC126-E RSV replicon cells, 48 hours, luminescence; for activity in the primary screen (RSV replicon), in words: 10 μM, HTS data. In general terms: Replicon systems follow genome replication, usually without infectious particles.
A further series can be described thus: LogD. It counts as physicochemical.
For another series, the system named is RSV A Long. It counts as cell-based, Respiratory syncytial virus. The conditions noted are these: read-out: RSV Long EC50; Hep2 cells, CPE assay.
Series [2] deals with RSV L mutant (Y1631H in L polymerase). It counts as cell-based, Respiratory syncytial virus. To be noted: for EC50: read-out: L Mutant EC50.
Series [3] concerns the target RSV polymerase (L/P complex) (Human respiratory syncytial virus A, UniProt P28887). As to the kind of experiment: In vitro RNA synthesis assay with purified L/P complex. It counts as biochemical.
Another series can be described thus: Hepatic clearance. In kind it is in vitro ADME.
Series [4] concerns RSV N mutant (nucleoprotein mutations). It counts as cell-based, Respiratory syncytial virus. The conditions noted are these: for EC50: read-out: N Mutant EC50, CPE assay, RSV604-resistant N mutant virus.
A further series addresses hERG channel (Homo sapiens, UniProt Q12809). As to the kind of experiment: hERG channel inhibition. It counts as biochemical. In general terms: The hERG channel carries a current that helps repolarise heart muscle cells.
Another series is described as follows: Microsomal stability. In kind it is in vitro ADME. The conditions noted are these: human liver microsomes.
The subject of series [5] is subgenomic RSV replicon. The conditions noted are these: read-out: Replicon EC50; assay validation; ref Tiong-Yip et al (2014); cited from earlier work.

Sequence of RSV polymerase (L/P complex) (P03421 whole entry): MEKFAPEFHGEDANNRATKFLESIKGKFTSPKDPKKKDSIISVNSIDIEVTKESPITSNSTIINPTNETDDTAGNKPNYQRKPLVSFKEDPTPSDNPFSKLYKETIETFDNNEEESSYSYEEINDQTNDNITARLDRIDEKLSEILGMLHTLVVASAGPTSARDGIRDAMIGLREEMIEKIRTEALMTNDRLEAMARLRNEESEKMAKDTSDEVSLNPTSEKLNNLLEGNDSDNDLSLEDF
Sequence of RSV polymerase (L/P complex) (P28887 whole entry): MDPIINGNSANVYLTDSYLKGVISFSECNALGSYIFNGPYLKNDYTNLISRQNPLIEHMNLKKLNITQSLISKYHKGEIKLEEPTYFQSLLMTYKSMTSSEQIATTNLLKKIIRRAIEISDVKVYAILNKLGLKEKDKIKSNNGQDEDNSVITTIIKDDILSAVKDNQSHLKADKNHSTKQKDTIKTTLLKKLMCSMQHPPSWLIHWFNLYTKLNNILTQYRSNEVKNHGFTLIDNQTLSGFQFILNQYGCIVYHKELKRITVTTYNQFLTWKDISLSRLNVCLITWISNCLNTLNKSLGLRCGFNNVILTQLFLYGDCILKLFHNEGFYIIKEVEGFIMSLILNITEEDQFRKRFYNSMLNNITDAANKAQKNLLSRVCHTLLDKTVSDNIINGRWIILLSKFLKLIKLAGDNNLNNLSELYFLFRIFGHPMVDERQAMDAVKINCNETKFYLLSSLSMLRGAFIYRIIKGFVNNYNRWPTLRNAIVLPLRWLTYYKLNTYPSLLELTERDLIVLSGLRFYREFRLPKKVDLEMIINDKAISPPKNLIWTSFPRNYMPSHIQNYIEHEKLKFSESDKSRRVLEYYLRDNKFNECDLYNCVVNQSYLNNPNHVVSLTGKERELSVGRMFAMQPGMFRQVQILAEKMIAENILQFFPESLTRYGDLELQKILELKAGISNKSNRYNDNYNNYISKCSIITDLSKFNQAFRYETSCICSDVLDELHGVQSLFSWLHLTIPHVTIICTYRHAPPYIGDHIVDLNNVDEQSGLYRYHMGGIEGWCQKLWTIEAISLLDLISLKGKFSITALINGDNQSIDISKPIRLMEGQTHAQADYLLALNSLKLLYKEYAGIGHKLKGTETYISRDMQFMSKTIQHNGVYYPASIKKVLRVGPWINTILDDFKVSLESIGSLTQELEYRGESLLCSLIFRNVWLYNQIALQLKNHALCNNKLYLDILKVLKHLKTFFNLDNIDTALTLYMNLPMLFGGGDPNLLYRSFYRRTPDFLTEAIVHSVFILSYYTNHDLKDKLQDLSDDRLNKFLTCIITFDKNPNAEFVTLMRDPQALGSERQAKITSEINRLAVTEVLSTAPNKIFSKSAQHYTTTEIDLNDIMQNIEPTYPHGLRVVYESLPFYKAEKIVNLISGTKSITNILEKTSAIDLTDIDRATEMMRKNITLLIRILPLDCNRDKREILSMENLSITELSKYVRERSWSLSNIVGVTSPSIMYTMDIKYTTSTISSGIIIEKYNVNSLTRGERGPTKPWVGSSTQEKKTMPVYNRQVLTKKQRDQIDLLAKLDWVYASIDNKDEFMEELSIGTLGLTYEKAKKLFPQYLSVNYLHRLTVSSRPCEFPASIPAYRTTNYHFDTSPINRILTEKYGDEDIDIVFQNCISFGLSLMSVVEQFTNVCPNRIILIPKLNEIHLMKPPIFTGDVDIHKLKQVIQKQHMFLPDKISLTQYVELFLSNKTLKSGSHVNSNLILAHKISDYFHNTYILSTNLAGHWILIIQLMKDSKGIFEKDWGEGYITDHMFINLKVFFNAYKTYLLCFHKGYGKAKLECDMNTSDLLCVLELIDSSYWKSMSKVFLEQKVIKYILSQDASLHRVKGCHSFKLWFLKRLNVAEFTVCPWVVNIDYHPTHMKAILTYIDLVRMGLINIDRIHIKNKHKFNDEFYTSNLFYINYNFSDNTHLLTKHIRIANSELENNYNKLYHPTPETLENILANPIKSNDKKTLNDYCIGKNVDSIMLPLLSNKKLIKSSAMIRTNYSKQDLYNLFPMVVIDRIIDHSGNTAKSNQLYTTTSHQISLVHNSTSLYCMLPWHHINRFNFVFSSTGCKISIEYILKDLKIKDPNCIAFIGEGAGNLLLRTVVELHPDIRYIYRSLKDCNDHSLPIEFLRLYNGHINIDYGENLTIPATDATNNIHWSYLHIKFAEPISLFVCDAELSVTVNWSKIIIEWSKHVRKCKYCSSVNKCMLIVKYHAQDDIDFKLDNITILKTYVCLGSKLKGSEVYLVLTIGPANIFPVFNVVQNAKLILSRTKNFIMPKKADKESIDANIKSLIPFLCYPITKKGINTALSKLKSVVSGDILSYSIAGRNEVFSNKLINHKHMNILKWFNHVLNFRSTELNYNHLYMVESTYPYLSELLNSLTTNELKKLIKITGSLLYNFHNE
Sequence of hERG channel (Q12809 whole entry): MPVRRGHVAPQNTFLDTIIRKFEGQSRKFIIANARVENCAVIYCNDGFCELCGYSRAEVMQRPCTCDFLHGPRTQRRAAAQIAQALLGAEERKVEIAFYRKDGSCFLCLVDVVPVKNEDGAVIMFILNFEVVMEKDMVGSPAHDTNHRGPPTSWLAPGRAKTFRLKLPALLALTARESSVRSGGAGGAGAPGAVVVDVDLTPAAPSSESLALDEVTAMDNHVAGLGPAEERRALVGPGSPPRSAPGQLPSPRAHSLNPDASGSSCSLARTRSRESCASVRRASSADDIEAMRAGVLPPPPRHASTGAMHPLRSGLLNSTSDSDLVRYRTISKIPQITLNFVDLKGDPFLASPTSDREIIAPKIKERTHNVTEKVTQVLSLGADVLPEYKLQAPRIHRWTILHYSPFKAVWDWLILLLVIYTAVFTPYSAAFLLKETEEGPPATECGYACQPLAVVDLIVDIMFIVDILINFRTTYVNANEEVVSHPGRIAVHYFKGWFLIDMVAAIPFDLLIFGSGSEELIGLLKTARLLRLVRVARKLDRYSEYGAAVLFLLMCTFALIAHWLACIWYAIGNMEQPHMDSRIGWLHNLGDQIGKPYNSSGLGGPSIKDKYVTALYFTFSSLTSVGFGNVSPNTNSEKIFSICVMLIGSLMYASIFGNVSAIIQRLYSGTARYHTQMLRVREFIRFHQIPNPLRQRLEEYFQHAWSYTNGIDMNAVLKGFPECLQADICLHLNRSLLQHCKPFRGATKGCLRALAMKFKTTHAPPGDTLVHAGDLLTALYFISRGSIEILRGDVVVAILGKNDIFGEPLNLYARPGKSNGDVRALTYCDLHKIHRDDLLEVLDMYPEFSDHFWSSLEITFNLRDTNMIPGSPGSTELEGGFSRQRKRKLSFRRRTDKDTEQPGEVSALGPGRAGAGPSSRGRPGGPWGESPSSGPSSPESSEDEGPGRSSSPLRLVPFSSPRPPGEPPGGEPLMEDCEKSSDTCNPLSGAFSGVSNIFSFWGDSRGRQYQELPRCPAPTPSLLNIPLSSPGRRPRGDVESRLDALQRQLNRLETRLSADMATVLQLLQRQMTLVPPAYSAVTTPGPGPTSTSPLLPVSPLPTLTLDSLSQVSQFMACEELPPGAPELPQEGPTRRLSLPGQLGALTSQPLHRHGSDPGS

On to `COc1cc(CN2CC3(CCN(S(=O)(=O)c4cn(C)cn4)CC3)c3c(n(C)c4cc(OC)ccc34)[C@H]2CO)cc(OC)c1` [BRD3482], for which the “PPB (% free)” value in “Plasma protein binding” stood at 3.8 % free. Further, the EC50 in the series with RSV B Washington was found to be 4.7 µM; with subgenomic RSV replicon [1], 7.2 µM; in the series on RSV A Long it was 1000 nM. In the series “Aqueous solubility”, this molecule yielded a Solubility of 22 µM (≈ 13.4 µg/mL). This molecule displayed a LogD in the series “LogD” of 2.9.

As to `Cc1cccc(-c2ccc([C@@H]3[C@@H](CO)N4CCCCN(S(=O)(=O)c5cn(C)cn5)C[C@@H]34)cc2)c1` [BRD3969], the “PPB (% free)” value in the series “Plasma protein binding” is listed as 1.6 % free. In series [2], the “L Mutant fold shift” value is given as > 25 μM (>6x), the “shift in activity against the L-mutant strain” value (shortened to “shift in activity”) is recorded as “greater than 6 fold” and the half-maximal effective concentration (EC50) was over 25 µM. The concentration giving a half-maximal response (EC50) in the series with RSV B Washington was over 50 µM. Besides, the Solubility in the series “Aqueous solubility” came to 49 µM (≈ 23.6 µg/mL). Further, the “effect on RSV RNA synthesis initiation or elongation in vitro” value in [3] (1000 μM, data not shown) is listed as “no effect”. Moreover, in [3] (concentrations up to 100 μM, 30 °C, 2 h), the “effect on in vitro RNA synthesis (de novo synthesis, back-priming)” value is listed as “does not inhibit the ability of the polymerase to synthesize RNA; also recorded: no discernible effect”. For the same molecule, the Rhep in the series “Hepatic clearance” amounted to 61.7 μL/min/10^6 cells. Besides, in series [4], the “N Mutant fold shift” value is listed as 6.9 μM (1.8x) and the EC50 was 6.9 µM. Moreover, the “hERG (% inh at 11 μM)” value at hERG channel was 14%. Moreover, in the series with subgenomic RSV replicon [1], the “activity in the primary screen (RSV replicon), in words” value is on record as “weak but significant activity” and the 50% effective concentration (EC50) was determined as 4.2 µM. In the series “Microsomal stability”, this molecule had an HLM of 77.9 µL/min/mg. Also, the “effect on T7 RNA polymerase (input minigenome template)” value with T7 RNA polymerase is on record as “inhibited T7 RNA polymerase”. Also, the log distribution coefficient (LogD) in the series “LogD” amounted to 3.6. The 50% effective concentration (EC50) with RSV A Long amounted to 3900 nM.

On to `CN1c2ccc(-c3ccc(C#N)cc3)cc2[C@H]2[C@H](CCN2C(=O)c2cccc(F)c2)[C@@H]1CO` [BRD4517], for which the results for the half-maximal effective concentration (EC50) in the series with RSV B Washington, with subgenomic RSV replicon [1] and with RSV A Long were 5.5 µM, 10.6 µM and 1600 nM, respectively.

With `COc1ccc2c3c([nH]c2c1)[C@H](CO)N(Cc1ccccc1)CC31CCN(C(=O)Cc2ccccc2)CC1` [BRD5449], in “Plasma protein binding”, the “PPB (% free)” value is under 1 % free. Further, the EC50 in the series on RSV B Washington is over 50 µM; with subgenomic RSV replicon [1], 4.9 µM; with RSV A Long it was 6800 nM. The molecule also showed a Solubility in “Aqueous solubility” of 16 µM (≈ 8.15 µg/mL). The Rhep in “Hepatic clearance” is listed as 194 μL/min/10^6 cells. In “Microsomal stability”, this molecule displayed an HLM of 465 µL/min/mg. In addition, in “LogD”, the LogD is over 4.4.

Consider `O=S(=O)(c1cccs1)N1CCCCN2[C@H](CO)[C@@H](c3ccc(/C=C/c4ccccc4)cc3)[C@@H]2C1` [BRD9101], for which the “PPB (% free)” value in the series “Plasma protein binding” is recorded as under 1 % free. In [2], the “shift in activity” value is recorded as “greater than 15 fold”. For the same molecule, the EC50 in [2] was over 25 µM; in the series on RSV B Washington, over 50 µM; in [4], 7.8 µM; in the series on subgenomic RSV replicon [1], 4.3 µM; with RSV A Long, 1700 nM. In addition, the Solubility in the series “Aqueous solubility” is under 1 µM. The Rhep in the series “Hepatic clearance” is 67.8 μL/min/10^6 cells. Further, the “N Mutant fold shift” value in series [4] (shift versus RSV A2 EC50) is 4.6 x. The “% inhibition of the RSV replicon in the primary screen” value with subgenomic RSV replicon [1] (10 uM, single concentration HTS) is reported as 70%. The molecule also registered an HLM in the series “Microsomal stability” of 57.1 µL/min/mg. Further, the LogD in the series “LogD” was over 4.8.

On to `Cn1cnc(S(=O)(=O)N2CCCCN3[C@H](CO)[C@@H](c4ccc(-c5ccc(F)cc5)cc4)[C@@H]3C2)c1` [BRD65768], for which the “PPB (% free)” value in the series “Plasma protein binding” came to 2.1 % free. In [2], the “shift in activity” value is over 3 fold. Besides, the EC50 in series [2] is over 25 µM; in the series on RSV B Washington it was over 50 µM; in series [4] it was 13.1 µM; in the series on subgenomic RSV replicon [1], 4.3 µM; in the series on RSV A Long, 7500 nM. The “L Mutant fold shift” value in series [2] (shift versus RSV A2 EC50) is reported as over 4 x. Further, the Solubility in the series “Aqueous solubility” was found to be 121 µM (≈ 58.6 µg/mL). The molecule also registered a Rhep in “Hepatic clearance” of 23.6 μL/min/10^6 cells. In addition, the “N Mutant fold shift” value in series [4] (shift versus RSV A2 EC50) stood at 2 x. In addition, the “hERG (% inh at 11 μM)” value on hERG channel amounted to 18%. Also, the “activity in the primary screen (RSV replicon), in words” value in the series with subgenomic RSV replicon [1] is recorded as “weak but significant activity”. In addition, the HLM in “Microsomal stability” came out at 41.2 µL/min/mg. The molecule further came in with a LogD in “LogD” of 3.3.

Regarding `O=C(NC1CC1)c1cc2c(s1)-c1ccccc1N(C(=O)c1ccc(NC(=O)c3ccccc3-c3ccccc3)cc1)CC2` [YM53403], the EC50 with subgenomic RSV replicon [5] was 0.63 µM.

Take `NC(=O)c1ncn([C@@H]2O[C@H](CO)[C@@H](O)[C@H]2O)n1` [ribavirin]: in the series on subgenomic RSV replicon [5], the EC50 was 6.28 µM.

The record behind these values is publication PMC4937797 (Antiviral research, 2016).
